{"source": "paper PMC4738305", "about": "“Metabolism and Disposition of Aditoprim in Swine, Broilers, Carp and Rats” (Scientific Reports, 2016)", "key": {"[1]": {"test": "Concentration and elimination of ADP and its metabolites in liver, kidney, muscle, fat/skin after oral ^3H-ADP for 7 d", "assay_type": "in vivo, broilers", "settings": "for concentration at 0.25 d / concentration at 1 d / concentration at 3 d: oral; for half-life: po", "protocol": "(§1) A total of 36 animals from each species (swine n = 24) were randomly assigned to six equal treatment groups and administered a single daily dose of ^3 H-ADP at 5 mg/kg b. w. (0.1 Ci/g) through oral gavage for 7 consecutive days. All the animals were housed on the basis of their group in the cages or aquaria throughout the whole study period. A group of animals was slaughtered through exsanguination under diethyl ether inhalation of anesthesia in the period of 6 h, 1, 3, 7, 14, and 21 d after the administration. The blood samples were immediately collected into the heparinized tubes and was centrifuged at 1920 × g at 4 °C for 10 min to obtain the plasma. The tissues from the heart, liver, spleen, lung, kidney, craw (broilers), stomach, intestine, fat, skin, muscle, thymus, pancreas, bile, bladder, hair (scale for carp), genital gland, adrenal glands, swim bladder (carp), brain, lymph, and bursa (broilers) were carefully excised and collected. The tissues were thoroughly rinsed with the deionized water to remove the residuary blood, blotted to dryness, and finally to perform the homogenization. In order to avoid cross-contamination the dissecting instruments were washed during the tissue procurements. The blank tissues were collected in order to provide control matrices. The total radioactivity levels in each sample were determined through LSC. The samples extracted from the plasma, bile, and tissues of the liver, kidney, muscle, and fat/skin were analyzed through LC/MS-IT-TOF and v. ARC radiometric detection for metabolite profiling. The blank samples were used as control to determine the background radioactivity or the endogenous nondrug-related ions observed within respective matrices or their extracts.\n(§2) The feces and tissues (2 g) were diluted with a mixture of methanol and chloroform (1:3, v:v; 2 mL/g homogenate). This procedure was carried out in a fume hood for the safety aspects. The pH value was adjusted to 9.0 with NH4OH. The mixture was vortexed and sonicated for 5 min and 10 min, respectively, and finally the samples were centrifuged at 7690 × g for 10 min. The supernatant was aspirated and then transferred into a new centrifuge tube. The obtained pellet was again subjected to the same process of vortex, ultrasonication, extraction, and centrifugation. The combined supernatant was concentrated under a stream of nitrogen in a water bath at 40 °C. The residue was reconstituted with 0.3 mL of methanol–water (1:9, v:v) before the injection into the LC-v. ARC/MS-IT-TOF system for analysis.\n(§3) ADP and its metabolites in the prepared samples were determined with a v. ARC radiometric detector and a hybrid IT/TOF mass spectrometer connected to the HPLC system (Shimadzu Corp., Kyoto, Japan). The LC system was equipped with a solvent delivery pump (LC-20AD), an auto-sampler (SIL-20AC), a degasser (DGU-20 A 3), a photodiode array detector (SPD-M20A), a communication base module (CBM-20 A), and a column oven (CTO-20AC). The chromatographic separation was achieved by using an Agilent extend-C18 column (2.1 mm × 150 mm, 5 μm) with a gradient mobile phase of A (0.01% ammonia and 5 mM ammonium acetate in water) and B (methanol) at a flow rate of 0.2 mL/min. The column temperature was maintained at 35 °C. Various HPLC methods were performed because of the large number of different metabolites to be analyzed. For the porcine sample, method 1 started at 5% B and increased to 20% B over 35 min, then to 55% B by 60 min, followed by re-equilibration for another 10 min. For the remaining samples, method 2 started at 10% B and increased to 60% B over 30 min, subsequently was maintained at 60% B for an additional 10 min, and then changed to 90% B over 2 min and maintained for 2 min. Afterwards, a re-equilibration step (decreased to 10% B over 1 min and maintained at 10% B for additional 9 min) was followed. For each matrix, more than 98% of the radioactivity injected into the column was eluted during the running time of the gradient program. […]"}, "[2]": {"test": "Concentration and elimination of ADP and its metabolites in liver, kidney, muscle, fat/skin after oral ^3H-ADP for 7 d", "assay_type": "in vivo, carp", "settings": "for concentration at 0.25 d / concentration at 1 d / concentration at 3 d / concentration at 7 d: carp, oral; for half-life: po", "protocol": "as §1, §2, §3"}, "[3]": {"test": "Concentration and elimination of ADP and its metabolites in liver, kidney, muscle, fat/skin after oral ^3H-ADP for 7 d", "assay_type": "in vivo, rats", "settings": "for half-life: po; for concentration at 0.25 d / concentration at 1 d / concentration at 3 d / concentration at 7 d: oral", "protocol": "as §1, §2, §3"}, "[4]": {"settings": "broiler chicken, kidney, 5 mg/kg b.w."}}, "note": "Like-named read-outs stand apart in the source and are kept apart here."}
{"smiles": "CNc1c(OC)cc(Cc2cnc(N)nc2N)cc1OC", "note": "[A1, N-monodesmethyl-ADP]", "values": [{"measurement": "concentration at 0.25 d", "setting": "[1]; [4]", "result": "6060 ± 970", "unit": "ng/g"}, {"measurement": "concentration at 1 d", "setting": "[1]; [4]", "result": "2920 ± 530", "unit": "ng/g"}, {"measurement": "concentration at 3 d", "setting": "[1]; [4]", "result": "370 ± 100", "unit": "ng/g"}, {"measurement": "concentration at 0.25 d", "setting": "[1]; broiler chicken, muscle, 5 mg/kg b.w.", "result": "200 ± 80", "unit": "ng/g"}, {"measurement": "concentration at 0.25 d", "setting": "[1]; broilers, fat, 5 mg/kg b. w.", "result": "300 ± 100", "unit": "ng/g"}, {"measurement": "concentration at 1 d", "setting": "[1]; broilers, fat, 5 mg/kg b. w.", "result": "60 ± 20", "unit": "ng/g"}, {"measurement": "concentration at 0.25 d", "setting": "[1]; broilers, liver, 5 mg/kg b. w.", "result": "3090 ± 680", "unit": "ng/g"}, {"measurement": "concentration at 1 d", "setting": "[1]; broilers, liver, 5 mg/kg b. w.", "result": "740 ± 120", "unit": "ng/g"}, {"measurement": "concentration at 3 d", "setting": "[1]; broilers, liver, 5 mg/kg b. w.", "result": "370 ± 100", "unit": "ng/g"}, {"measurement": "concentration at 1 d", "setting": "[1]; broilers, muscle, 5 mg/kg b. w.", "result": "90 ± 20", "unit": "ng/g"}, {"measurement": "half-life", "setting": "[1]; broiler kidney, after 5 mg/kg b. w. for 7 days, read-out: t1/2 of the individual compound (converted)", "result": 16.3, "unit": "h"}, {"measurement": "half-life", "setting": "[1]; broiler liver, after 5 mg/kg b. w. for 7 days, read-out: t1/2 of the individual compound (converted)", "result": 25.2, "unit": "h"}, {"measurement": "half-life", "setting": "[1]; tissues (liver, kidney, muscle, fat/skin), 5 mg/kg, broilers tissues, read-out: t1/2 of the individual compound, range over tissues", "result": "16.3 to 25.2", "unit": "h"}, {"measurement": "concentration at 0.25 d", "setting": "[2]; kidney, 5 mg/kg b.w.", "result": "7990 ± 1650", "unit": "ng/g"}, {"measurement": "concentration at 1 d", "setting": "[2]; kidney, 5 mg/kg b.w.", "result": "1730 ± 330", "unit": "ng/g"}, {"measurement": "concentration at 3 d", "setting": "[2]; kidney, 5 mg/kg b.w.", "result": "820 ± 150", "unit": "ng/g"}, {"measurement": "concentration at 7 d", "setting": "[2]; kidney, 5 mg/kg b.w.", "result": "380 ± 30", "unit": "ng/g"}, {"measurement": "concentration at 0.25 d", "setting": "[2]; liver, 5 mg/kg b. w.", "result": "1930 ± 250", "unit": "ng/g"}, {"measurement": "concentration at 1 d", "setting": "[2]; liver, 5 mg/kg b. w.", "result": "770 ± 130", "unit": "ng/g"}, {"measurement": "concentration at 3 d", "setting": "[2]; liver, 5 mg/kg b. w.", "result": "160 ± 30", "unit": "ng/g"}, {"measurement": "concentration at 7 d", "setting": "[2]; liver, 5 mg/kg b. w.", "result": 20, "unit": "ng/g"}, {"measurement": "concentration at 0.25 d", "setting": "[2]; muscle, 5 mg/kg b.w.", "result": "300 ± 80", "unit": "ng/g"}, {"measurement": "concentration at 1 d", "setting": "[2]; muscle, 5 mg/kg b.w.", "result": "270 ± 70", "unit": "ng/g"}, {"measurement": "concentration at 3 d", "setting": "[2]; muscle, 5 mg/kg b.w.", "result": "100 ± 20", "unit": "ng/g"}, {"measurement": "concentration at 0.25 d", "setting": "[2]; skin, 5 mg/kg b. w.", "result": "550 ± 90", "unit": "ng/g"}, {"measurement": "concentration at 1 d", "setting": "[2]; skin, 5 mg/kg b. w.", "result": "450 ± 130", "unit": "ng/g"}, {"measurement": "concentration at 3 d", "setting": "[2]; skin, 5 mg/kg b. w.", "result": "140 ± 20", "unit": "ng/g"}, {"measurement": "concentration at 7 d", "setting": "[2]; skin, 5 mg/kg b. w.", "result": "50 ± 10", "unit": "ng/g"}, {"measurement": "half-life", "setting": "[2]; carp kidney, after 5 mg/kg b. w. for 7 days, read-out: t1/2 of the individual compound (converted)", "result": 67.4, "unit": "h"}, {"measurement": "half-life", "setting": "[2]; carp liver, after 5 mg/kg b. w. for 7 days, read-out: t1/2 of the individual compound (converted)", "result": 26.2, "unit": "h"}, {"measurement": "half-life", "setting": "[2]; carp muscle, after 5 mg/kg b. w. for 7 days, read-out: t1/2 of the individual compound (converted)", "result": 49.2, "unit": "h"}, {"measurement": "half-life", "setting": "[2]; carp skin, after 5 mg/kg b. w. for 7 days, read-out: t1/2 of the individual compound (converted)", "result": 47.8, "unit": "h"}, {"measurement": "half-life", "setting": "[2]; tissues (liver, kidney, muscle, fat/skin), 5 mg/kg, carp tissues, read-out: t1/2 of the individual compound, range over tissues", "result": "26.2 to 67.4", "unit": "h"}, {"measurement": "half-life", "setting": "[3]; rat kidney, after 5 mg/kg b. w. for 7 days, read-out: t1/2 of the individual compound (converted)", "result": 50.6, "unit": "h"}, {"measurement": "half-life", "setting": "[3]; rat liver, after 5 mg/kg b. w. for 7 days, read-out: t1/2 of the individual compound (converted)", "result": 64.6, "unit": "h"}, {"measurement": "concentration at 0.25 d", "setting": "[3]; rat, fat, 5 mg/kg b. w.", "result": "70 ± 20", "unit": "ng/g"}, {"measurement": "concentration at 0.25 d", "setting": "[3]; rat, kidney, 5 mg/kg b.w.", "result": "2650 ± 970", "unit": "ng/g"}, {"measurement": "concentration at 1 d", "setting": "[3]; rat, kidney, 5 mg/kg b.w.", "result": "320 ± 120", "unit": "ng/g"}, {"measurement": "concentration at 3 d", "setting": "[3]; rat, kidney, 5 mg/kg b.w.", "result": "120 ± 20", "unit": "ng/g"}, {"measurement": "concentration at 7 d", "setting": "[3]; rat, kidney, 5 mg/kg b.w.", "result": "40 ± 10", "unit": "ng/g"}, {"measurement": "concentration at 0.25 d", "setting": "[3]; rat, liver, 5 mg/kg b. w.", "result": "1940 ± 580", "unit": "ng/g"}, {"measurement": "concentration at 1 d", "setting": "[3]; rat, liver, 5 mg/kg b. w.", "result": "390 ± 90", "unit": "ng/g"}, {"measurement": "concentration at 3 d", "setting": "[3]; rat, liver, 5 mg/kg b. w.", "result": "180 ± 40", "unit": "ng/g"}, {"measurement": "concentration at 7 d", "setting": "[3]; rat, liver, 5 mg/kg b. w.", "result": "80 ± 10", "unit": "ng/g"}, {"measurement": "concentration at 0.25 d", "setting": "[3]; rat, muscle, 5 mg/kg b.w.", "result": "250 ± 100", "unit": "ng/g"}, {"measurement": "concentration at 1 d", "setting": "[3]; rat, muscle, 5 mg/kg b.w.", "result": "140 ± 30", "unit": "ng/g"}, {"measurement": "half-life", "setting": "[3]; rat, tissues (liver, kidney, muscle, fat/skin), 5 mg/kg, rats tissues, read-out: t1/2 of the individual compound, range over tissues", "result": "50.6 to 64.6", "unit": "h"}]}
